{"source": "ChEMBL document CHEMBL6115006", "about": "“Discovery of potent quinone oxidoreductase 2 inhibitors to overcome TRAIL resistance of non-small cell lung cancer” (Eur J Med Chem, 2025)", "key": {"A549": {"tested_on": "A549", "assay": "cells", "conditions": "Homo sapiens, A549, 48 h, read-out: INH"}, "[1]": {"molecular_target": "T1, Ribosyldihydronicotinamide dehydrogenase [quinone] (Homo sapiens, UniProt P16083)", "T1 sequence (P16083 whole entry)": "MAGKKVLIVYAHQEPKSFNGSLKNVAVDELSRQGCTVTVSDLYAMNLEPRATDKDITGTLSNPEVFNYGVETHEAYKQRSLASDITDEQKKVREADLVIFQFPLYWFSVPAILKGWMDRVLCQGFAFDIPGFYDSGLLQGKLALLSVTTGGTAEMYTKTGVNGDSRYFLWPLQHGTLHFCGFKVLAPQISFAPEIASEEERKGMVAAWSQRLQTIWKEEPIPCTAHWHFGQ", "description": "Inhibition of recombinant human NQO2 using DCPIP and EPR as substrate measured over 1 min in presence of FAD by spectrophotometric analysis"}}, "data": [{"smiles": "COc1cc(/C=C/c2ccc(N)cc2)cc(OC)c1OC", "values": [{"measurement": "inhibition at 10 µM", "setting": "A549", "result": 14.7, "unit": "%"}]}, {"smiles": "Oc1ccc(/C=C/c2cc(O)cc(O)c2)cc1", "note": "[RESVERATROL]", "values": [{"measurement": "inhibition at 10 µM", "setting": "A549", "result": 15.4, "unit": "%"}]}, {"smiles": "COc1cc(-c2ccc3cc(N)ccc3c2)cc(OC)c1OC", "values": [{"measurement": "IC50", "setting": "[1]", "result": 69, "unit": "nM"}, {"measurement": "inhibition at 10 µM", "setting": "A549", "result": 24.3, "unit": "%"}]}]}
